The text below walks through data of patent publication US10568876B2, “Tetrahydroisoquinoline derivatives useful as inhibitors of diacylglyceride O-acyltransferase 2” (Merck Sharp & Dohme Corp., priority 2014, dated 2020).

Chain of hDGAT2 (Q96PD7 whole entry): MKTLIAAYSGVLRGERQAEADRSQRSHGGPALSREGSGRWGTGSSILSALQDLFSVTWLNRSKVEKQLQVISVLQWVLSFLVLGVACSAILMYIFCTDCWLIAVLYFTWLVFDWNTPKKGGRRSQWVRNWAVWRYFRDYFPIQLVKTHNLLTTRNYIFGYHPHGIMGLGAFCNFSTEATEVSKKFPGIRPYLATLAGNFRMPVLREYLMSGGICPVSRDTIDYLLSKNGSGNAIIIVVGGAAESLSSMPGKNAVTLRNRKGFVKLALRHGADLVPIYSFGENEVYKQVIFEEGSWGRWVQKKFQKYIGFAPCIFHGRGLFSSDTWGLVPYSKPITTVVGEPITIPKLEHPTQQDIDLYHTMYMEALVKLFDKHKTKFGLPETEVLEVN

The target of the assay is hDGAT2 (Homo sapiens (Human), UniProt Q96PD7). The assay can be described thus: DGAT2 Enzymatic Activity Assay. It counts as biochemical. The following applies: hDGAT2 Sf-9 membrane prep; 25 μM diolein, 10 μM oleoyl-CoA; triolein product by LC/MS/MS; read-out: IC50 values for inhibition of DGAT2. As for the experimental part:
Sf-9 insect cells were maintained in Grace's insect cell culture medium with 10% heated-inactivated fetal bovine serum, 1% Pluronic F-68 and 0.14 μg/ml Kanamycine sulfate in Erlenmeyer flasks at 28° C. in a shaker incubator. After infection with untagged hDGAT2 baculovirus at multiplicity of infection (MOI) 0.1 for 48 hours, cells were harvested. Cell pellets were suspended in buffer containing 10 mM Tris-HCl (pH 7.5), 1 mM EDTA (pH 8.0), 250 mM sucrose and Complete Protease Inhibitor Cocktail (Roche Diagnostics Corp., Indianapolis, Ill.), and sonicated on ice. Membrane fractions were isolated by ultracentrifugation (100,000×g pellet), resuspended in the same buffer, and frozen (−80° C.) for later use. The protein concentration was determined with the BCA Protein Assay kit (Pierce Biotechnology Inc., Rockford, Ill.). Expression of protein levels was analyzed by immunoblotting with goat polyclonal DGAT2 antibody C-15 and donkey anti-goat IgG HRP (Santa Cruz Biotechnology, Inc., Santa Cruz, Calif.) followed by detection with ECL reagent (GE Healthcare, Piscataway, N.J.).
LC/MS/MS analyses were performed using Thermal Fisher's LX4-TSQ Vantage system. This system consists of an Agilent binary high-performance liquid chromatography (HPLC) pumps and a TSQ Vantage triple quadrupole MS/MS instrument. For each sample, 2 μL, samples from the top organic layer of in-plate liquid-liquid extraction were injected onto a Thermo Betabasic C4 column (2.1 mm×20 mm, 5 μm particle size). The samples were then eluted using the following conditions; mobile phase: methanol/water with 0.1% ammonium format=92/8 (v/v), flow rate: 1 mL/min, temperature: 25 C. Data was acquired in positive mode using a heated electrospray ionization (HESI) interface. The operational parameters for the TSQ Vantage MS/MS instrument were a spray voltage of 3000 V, capillary temperature of 280° C., vaporizer temperature 400° C., shealth gas 60 arbitrary unit, Aux gas 40 arbitrary units, S-lens 113 and collision gas 0.16 Pascals. […] (SRM) chromatograms of triolein (Q1: 902.9>Q3: 602.3) and internal standard (Q1: 902.9>Q3: 602.3) were collected for 40 sec. The peak area was integrated by Xcalibur Quan software. The ratio between the triolein generated in the reaction and spiked in internal standard were used to generate percentage inhibition and IC50 values. Compound percentage inhibition was calculated by the following formula: Inhibition %=1-[(compound response low control)/(high control low control)]×100%. Potent compounds were titrated and IC50 were calculated by 4 parameter sigmoidal curve fitting formula.
DGAT2 activity was determined by measuring the amount of enzymatic product triolein (1,2,3-Tri(cis-9-octadecenoyl)glycerol) using the membrane prep mentioned above. The assay was carried out in deep well 384 plates in a final volume of 40 μL at room temperature. The assay mixture contained the following: assay buffer (100 mM Tris.Cl, pH 7.0, 20 mM MgCl2, 5% ethanol), 25 μM of diolein, 10 μM of oleoyl-CoA and 10 ng/μL of DGAT2 membrane.
On to `Cc1noc([C@@H]2C[C@H]2C(=O)NCc2ccc(-c3cccc(OC(F)(F)F)c3)c3c2CN(C(=O)NC2(C)COC2)CC3)n1` (relative stereo) [Example 67, 8-(((trans)-2-(3-methyl-1,2,4-oxadiazol-5-yl)cyclopropanecarboxamido)methyl)-N-(3-methyloxetan-3-yl)-5-(3-(trifluoromethoxy)phenyl)-3,4-dihydroisoquinoline-2(1H)-carboxamide], for which the IC50 was 13.6 nM. Consider `COc1cccc(-c2ccc(CNC(=O)[C@@H]3C[C@H]3c3ccccc3)c3c2CCN(C(=O)C(CO)C(F)(F)F)C3)c1` (stereo partly shown) [Example 118], for which the IC50 came out at 1310 nM.

With `COC(=O)c1cccc(-c2ccc(CNC(=O)C3CC3c3ccccc3)c3c2CCN(C(=O)c2c[nH]nc2C2CC2)C3)c1` (stereo not shown) [Example 121, methyl 3-(2-(3-cyclopropyl-1H-pyrazole-4-carbonyl)-8-((2-phenylcyclopropanecarboxamido)methyl)-1,2,3,4-tetrahydroisoquinolin-5-yl)benzoate], the IC50 worked out at 632 nM. Turning to `Cc1noc(C2CC2C(=O)NCc2ccc(-c3cccc(OC(F)(F)F)c3)c3c2CN(C(=O)NC2CCS(=O)(=O)C2)CC3)n1` (stereo not shown) [Example 76, N-(1,1-dioxidotetrahydrothiophen-3-yl)-8-((2-(3-methyl-1,2,4-oxadiazol-5-yl)cyclopropanecarboxamido)methyl)-5-(3-(trifluoromethoxy)phenyl)-3,4-dihydroisoquinoline-2(1H)-carboxamide], the IC50 stood at 238 nM. As for `Cc1noc([C@@H]2C[C@H]2C(=O)NCc2ccc(-c3cccc(OC(F)(F)F)c3)c3c2CN(CC(=O)N2CCOCC2(C)C)CC3)n1` (relative stereo) [Example 91, (trans)-N-((2-(2-(3,3-dimethylmorpholino)-2-oxoethyl)-5-(3-(trifluoromethoxy)phenyl)-1,2,3,4-tetrahydroisoquinolin-8-yl)methyl)-2-(3-methyl-1,2,4-oxadiazol-5-yl)cyclopropanecarboxamide], the IC50 is 4300 nM. As for `CC(C)(C)NC(=O)N1CCc2c(-c3cnn(Cc4ccccc4)c3)ccc(CNC(=O)[C@@H]3C[C@H]3c3ccccc3)c2C1` (relative stereo) [Example 40, 5-(1-benzyl-1H-pyrazol-4-yl)-N-(tert-butyl)-8-(((trans)-2-phenylcyclopropanecarboxamido)methyl)-3,4-dihydroisoquinoline-2(1H)-carboxamide], the IC50 was 4790 nM.

For the molecule `CC(C)(C)NC(=O)N1CCc2c(-c3ccc4c(c3)CNC4=O)ccc(CNC(=O)[C@@H]3C[C@H]3c3ccccc3)c2C1` (relative stereo) [Example 45, N-(tert-butyl)-5-(1-oxoisoindolin-5-yl)-8-(((trans)-2-phenylcyclopropanecarboxamido)methyl)-3,4-dihydroisoquinoline-2(1H)-carboxamide], the half-maximal inhibitory concentration (IC50) was determined as 2650 nM. Turning to `Cc1noc(C2CC2C(=O)NCc2ccc(-c3cccc(OC(F)(F)F)c3)c3c2CN(C(=O)NC(C)(C)C)CC3)n1` (stereo not drawn) [Example 1, N-(tert-butyl)-8-(((trans)-2-(3-methyl-1,2,4-oxadiazol-5-yl)cyclopropanecarboxamide)methyl)-5-(3-(trifluoromethoxy)phenyl)-3,4-dihydroisoquinoline-2(1H)-carboxamide], the IC50 worked out at 3.6 nM. For `CC(C)(C)NC(=O)N1CCc2c(-c3cnn(-c4ccccc4)c3)ccc(CNC(=O)[C@@H]3C[C@H]3c3ccccc3)c2C1` (relative stereo) [Example 35, N-(tert-butyl)-5-(1-phenyl-1H-pyrazol-4-yl)-8-(((trans)-2-phenylcyclopropanecarboxamido)methyl)-3,4-dihydroisoquinoline-2(1H)-carboxamide], the IC50 came out at 1170 nM. For the molecule `COC(=O)c1cccc(-c2ccc(CNC(=O)C3CC3c3ccccc3)c3c2CCN(C(=O)C2(C)CC2)C3)c1` (stereo not shown) [Example 132, methyl 3-(2-(1-methylcyclopropanecarbonyl)-8-((2-phenylcyclopropanecarboxamido)methyl)-1,2,3,4-tetrahydroisoquinolin-5-yl)benzoate], the IC50 worked out at 522 nM. In the case of `Cc1noc([C@@H]2C[C@H]2C(=O)NCc2ccc(-c3cccc(C(F)(F)F)c3)c3c2CN(C(=O)NC2(C)COC2)CC3)n1` (relative stereo) [Example 69, 8-(((trans)-2-(3-methyl-1,2,4-oxadiazol-5-yl)cyclopropanecarboxamido)methyl)-N-(3-methyloxetan-3-yl)-5-(3-(trifluoromethyl)phenyl)-3,4-dihydroisoquinoline-2(1H)-carboxamide], the concentration for half-maximal inhibition (IC50) was found to be 19.6 nM.

Regarding `COC(=O)c1cccc(-c2ccc(CNC(=O)C3CC3c3ccccc3)c3c2CCN(C(=O)NC2CC(F)(F)C2)C3)c1` (stereo not shown) [Example 56, methyl 3-(2-((3,3-difluorocyclobutyl)carbamoyl)-8-((2-phenylcyclopropanecarboxamido)methyl)-1,2,3,4-tetrahydroisoquinolin-5-yl) benzoate], the IC50 is 9.88 nM. For the molecule `COC(=O)c1cccc(-c2ccc(CNC(=O)C3CC3c3ccccc3)c3c2CCN(C(=O)Cc2ccccc2)C3)c1` (stereo not shown) [Example 112, methyl 3-(2-(2-phenylacetyl)-8-((2-phenylcyclopropanecarboxamido)methyl)-1,2,3,4-tetrahydroisoquinolin-5-yl)benzoate], the IC50 worked out at 2930 nM.

For `Cc1noc([C@@H]2C[C@H]2C(=O)NCc2ccc(-c3cccc(OC(F)(F)F)c3)c3c2CN(Cc2noc(C4CC4)n2)CC3)n1` (relative stereo) [Example 101, (trans)-N-((2-((5-cyclopropyl-1,2,4-oxadiazol-3-yl)methyl)-5-(3-(trifluoromethoxy)phenyl)-1,2,3,4-tetrahydroisoquinolin-8-yl)methyl)-2-(3-methyl-1,2,4-oxadiazol-5-yl)cyclopropanecarboxamide], the IC50 amounted to 4500 nM. With `Cc1noc2ccc(-c3ccc(CNC(=O)[C@@H]4C[C@H]4c4ccccc4)c4c3CCN(C(=O)NC(C)(C)C)C4)cc12` (relative stereo) [Example 27, N-(tert-butyl)-5-(3-methylbenzo[d]isoxazol-5-yl)-8-(((trans)-2-phenylcyclopropanecarboxamido)methyl)-3,4-dihydroisoquinoline-2(1H)-carboxamide], the IC50 came out at 59.8 nM. For the molecule `COC(=O)c1cccc(-c2ccc(CNC(=O)C3CC3c3ccccc3)c3c2CCN(C(=O)c2cccc(F)c2)C3)c1` (stereo not shown) [Example 140, methyl 3-(2-(3-fluorobenzoyl)-8-((2-phenylcyclopropanecarboxamido)methyl)-1,2,3,4-tetrahydroisoquinolin-5-yl)benzoate], the IC50 turned out to be 1530 nM. `COc1cccc(-c2ccc(CNC(=O)[C@@H]3C[C@H]3c3ccccc3)c3c2CCN(C(=O)NC(C)(C)CC(C)(C)C)C3)c1` (relative stereo) [Example 61, 5-(3-methoxyphenyl)-8-(((trans)-2-phenylcyclopropanecarboxamido)methyl)-N-(2,4,4-trimethylpentan-2-yl)-3,4-dihydroisoquinoline-2(1H)-carboxamide]: the IC50 worked out at 500 nM. Regarding `CCCNC(=O)N1CCc2c(-c3cccc(OC)c3)ccc(CNC(=O)[C@@H]3C[C@H]3c3ccccc3)c2C1` (relative stereo) [Example 70], the IC50 came out at 20.4 nM. In the case of `COC(=O)c1cccc(-c2ccc(CNC(=O)C3CC3c3ccccc3)c3c2CCN(C(=O)CCC(F)(F)F)C3)c1` (stereo not shown) [Example 127, methyl 3-(8-((2-phenylcyclopropanecarboxamido)methyl)-2-(4,4,4-trifluorobutanoyl)-1,2,3,4-tetrahydroisoquinolin-5-yl)benzoate], the IC50 turned out to be 1220 nM.

As usually defined, the IC50 is the concentration at which inhibition is half-maximal.
